The nature of data set [1]: Stability of carbamide peroxide stored with sweeteners. To be noted: for % Carbamide Peroxide recovered after 4 weeks of aging with sweetener at 25 C.: carbamide peroxide stored with sweetener, four weeks; for tendency of sweetener to react with the peroxide: result in words. The format is physicochemical. As for the experimental part:
The present inventors have compared the action of certain sweeteners on the effect with carbamide peroxide, with surprising results. Carbamide peroxide was stored with three sweeteners, and stored for four weeks at 25° C. to determine stability. The three sweeteners included aspartame, acesulfame potassium and sucralose. The percentage of carbamide peroxide recovered after four weeks was measured.

Data set [2] can be described thus: Shelf life stability of encapsulated carbamide peroxide in chewing gum (Example 1). The format is physicochemical. The settings on record: without encapsulation, after two weeks of storage. As for the experimental part: The stability of various encapsulants for carbamide peroxide in chewing gum was measured. As explained above, peroxides in general are known to be problematic in the shelf life of chewing gums, as they have a tendency to break down gum base, rendering it ineffective and useless. Chewing gums including various encapsulated carbamide peroxides were prepared and were stored for eight weeks at room temperature and at 37° C. Solid carbamide peroxide was encapsulated in the following encapsulating materials: (1) ethyl cellulose (25% encapsulant weight); (2) polyvinyl acetate B30 (30% encapsulant weight); (3) gum arabic (30% encapsulant weight); (4) mannitol (30% encapsulant weight); and (5) shellac (30% encapsulant weight). These encapsulated particles were used in formulating pieces of chewing gum and were measured for shelf life stability. In addition, a control chewing gum was prepared, which included non-encapsulated (“free”) carbamide peroxide within the gum base. The amount of carbamide peroxide obtained after the study was measured. […] At room temperature after eight weeks, chewing gums including this encapsulated carbamide peroxide had approximately 95% of the carbamide peroxide remaining. Even after eight weeks at elevated temperatures, these products had approximately 80% of the carbamide peroxide remaining.

Where a name gives a salt, the structure may show the parent alone. Residues, ends and D or L forms follow the SMILES beside them.

For the molecule `OC[C@H]1O[C@H](O[C@]2(CCl)O[C@H](CCl)[C@@H](O)[C@@H]2O)[C@H](O)[C@@H](O)[C@H]1Cl` [Sucralose], in data set [1], the “% Carbamide Peroxide recovered after 4 weeks of aging with sweetener at 25 C.” value (“% Carbamide Peroxide recovered” for short) worked out at 100% and the “tendency of sweetener to react with the peroxide” value (“tendency of sweetener to react” for short) was “do not react with the peroxide”.
With `OC[C@@H](O)[C@@H](O[C@H]1O[C@H](CO)[C@@H](O)[C@H](O)[C@H]1O)[C@H](O)[C@@H](O)CO` [maltitol], the “tendency of sweetener to react” value in data set [1] is on record as “do not react with the peroxide”.
Turning to `COC(=O)[C@H](Cc1ccccc1)NC(=O)[C@@H](N)CC(=O)O` [Aspartame, L-aspartyl-L-phenylalanine methyl ester] (H-Asp-Phe-OMe), in data set [1], the “% Carbamide Peroxide recovered” value worked out at 78% and the “tendency of sweetener to react” value is listed as “have a tendency to react with the peroxide”. The “% Carbamide Peroxide recovered” value in data set [1] (listed as aspartame) is listed as “significant reduction”.
Regarding `CC1=CC(=O)NS(=O)(=O)O1` [Ace-K, potassium salt of 3,4-dihydro-6-methyl-1,2,3-oxathiazine-4-one-2,2-dioxide], in data set [1], the “% Carbamide Peroxide recovered” value turned out to be 92%.
As for `NC(N)=O.OO` [carbamide peroxide], the “carbamide peroxide decomposed in chewing gum product” value in data set [2] was “nearly all of the carbamide peroxide is decomposed”.
Consider `OCC(O)CO` [glycerin], for which, in data set [1], the “tendency of sweetener to react” value was “have a tendency to react with the peroxide”.
On to isomalt, for which the “tendency of sweetener to react” value in data set [1] was “do not react with the peroxide”.

The record behind these values is patent US20140105948A1, “STABILITY OF PEROXIDE IN ORAL CARE COMPOSTIONS” (INTERCONTINENTAL GREAT BRANDS LLC, priority 2011, published 2014).
